Experimental data reported in paper PMC3683333, “^11C-LY2428703, a positron emission tomographic radioligand for the metabotropic glutamate receptor 1, is unsuitable for imaging in monkey and human brains” (EJNMMI Research, 2013).

Experiments:
[1] = tested on: ABCB1 (P-gp) and ABCG2 (BCRP); assay: Brain PET after blockade of efflux transporters, monkey; format: in vivo, rhesus monkeys (Macaca mulatta)
Experimental: Four male rhesus monkeys (Macaca mulatta, 11.7 ± 2.9 kg) were imaged in 13 PET scans. Seven scans were performed at baseline, three scans were performed after receptor blocking to calculate nondisplaceable uptake (VND), and three scans were performed after blockade of the efflux transporters at the blood–brain barrier. Receptors were blocked by mixing ^11C-LY2428703 with an mGluR1 antagonist - either nonradioactive LY2428703 (2.0 mg/kg) or LY2332084 (0.5 mg/kg) - in the same syringe. Efflux transporters were blocked in two scans by injecting DCPQ, which selectively blocks the efflux transporter ABCB1 (P-gp), and in one scan by injecting elacridar, which blocks both ABCB1 (P-gp) and ABCG2 (BCRP).
(§1) PET images were acquired using either the high-resolution research tomograph (HRRT) or the FOCUS 220 scanner (Siemens/CPS, Knoxville, TN, USA) for 120 min in 33 frames, with frame durations ranging from 30 s to 5 min, and correcting for attenuation and scatter. About 2 h before the PET scan, anesthesia was initiated with ketamine (10 mg/kg IM) and then maintained with 1% to 3% isoflurane. Electrocardiograph, body temperature, heart rate, and respiration rate were measured throughout the experiment. At baseline, the injected activity was 210 ± 51 MBq (specific activity at time of injection 43.2 ± 25.6 GBq/μmol, mass dose 6.9 ± 4.7 nmol or 0.62 ± 0.35 nmol/kg). Tissue time-activity curves were obtained from semi-automatic regions of interest encompassing the whole cerebellum and the rest of the brain. Brain uptake was expressed as standardized uptake value (SUV). Arterial input function was obtained for eight scans: four at baseline, two after blocking with nonradioactive LY2428703, one after blocking with DCPQ, and one after blocking with elacridar. Blood samples (0.5 mL each) were drawn through a port connected to the femoral artery at 15-s intervals until 2 min, followed by 1-mL samples at 3, 5, 10, 30, 60, 90, and 120 min. The plasma time-activity curve was corrected for the fraction of unchanged radioligand following the procedure detailed above.
(§2) Volumes of distribution (VT) were obtained by nonlinear compartmental analysis. Goodness-of-fit by nonlinear least squares analysis was evaluated using the Akaike Information Criterion (AIC) and Model Selection Criterion (MSC). The most appropriate model is that with the smallest AIC and the largest MSC score. Goodness-of-fit by the compartment models was compared with F statistics. A value of P < 0.05 was considered significant for F statistics. The identifiability of kinetic variables was calculated as standard error obtained from the diagonal of the covariance matrix and expressed as a percentage of the rate constant.

mGluR1 [2] = target: mGluR1 (Homo sapiens, UniProt Q13255); assay: Brain PET at baseline, human; format: in vivo; parameters: from tissue; host or cells: brain of living healthy human volunteers (in vivo PET); conditions: for VT: mean ± SD
Chain of mGluR1 (Homo sapiens, UniProt Q13255) (Q13255 19-1194): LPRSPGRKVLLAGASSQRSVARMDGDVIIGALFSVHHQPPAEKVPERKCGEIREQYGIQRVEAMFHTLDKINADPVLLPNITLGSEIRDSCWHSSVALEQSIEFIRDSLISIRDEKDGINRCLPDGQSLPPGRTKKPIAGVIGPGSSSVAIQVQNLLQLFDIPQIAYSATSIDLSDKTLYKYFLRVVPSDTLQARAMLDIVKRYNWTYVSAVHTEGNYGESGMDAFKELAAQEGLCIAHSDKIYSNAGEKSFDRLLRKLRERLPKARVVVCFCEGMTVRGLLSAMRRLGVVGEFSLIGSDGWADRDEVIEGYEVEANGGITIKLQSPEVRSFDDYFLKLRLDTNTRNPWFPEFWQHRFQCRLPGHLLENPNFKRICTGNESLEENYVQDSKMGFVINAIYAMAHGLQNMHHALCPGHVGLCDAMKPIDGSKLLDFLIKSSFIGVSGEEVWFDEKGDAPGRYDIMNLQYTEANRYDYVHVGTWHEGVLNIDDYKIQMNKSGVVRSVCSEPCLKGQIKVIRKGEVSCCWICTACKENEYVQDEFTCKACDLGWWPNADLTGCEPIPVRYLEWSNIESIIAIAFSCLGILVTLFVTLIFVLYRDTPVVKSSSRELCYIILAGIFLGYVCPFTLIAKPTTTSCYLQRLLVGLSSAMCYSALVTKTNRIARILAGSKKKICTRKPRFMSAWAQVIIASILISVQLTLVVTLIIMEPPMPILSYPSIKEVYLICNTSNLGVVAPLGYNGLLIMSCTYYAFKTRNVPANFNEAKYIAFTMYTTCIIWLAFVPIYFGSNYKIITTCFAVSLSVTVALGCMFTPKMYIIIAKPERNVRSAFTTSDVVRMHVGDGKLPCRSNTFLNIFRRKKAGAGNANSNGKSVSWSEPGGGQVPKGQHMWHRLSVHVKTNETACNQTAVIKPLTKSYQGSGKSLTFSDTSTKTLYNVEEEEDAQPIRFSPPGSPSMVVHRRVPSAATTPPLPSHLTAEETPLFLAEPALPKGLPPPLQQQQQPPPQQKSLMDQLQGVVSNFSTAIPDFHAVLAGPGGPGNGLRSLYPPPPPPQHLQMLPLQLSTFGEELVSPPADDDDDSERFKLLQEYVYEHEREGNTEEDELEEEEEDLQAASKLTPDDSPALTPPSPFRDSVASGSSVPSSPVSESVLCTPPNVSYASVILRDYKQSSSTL
Source text: (§3) Three healthy females participated in the study (29 ± 2-year old, 69 ± 13 kg). All were free from current medical and psychiatric illnesses, as assessed by medical history, physical examination, electrocardiogram, urinalysis including drug screening, and blood tests (complete blood count, serum chemistries, thyroid function test, and antibody screening for syphilis, HIV, and hepatitis B). The National Institutes of Health Central Nervous System Institutional Review Board approved the protocols and the consent forms. Written informed consent was obtained from all subjects.
PET images were acquired using the GE Advance scanner (GE Healthcare, Milwaukee, WI, USA) for 120 min. An 8-min ^68Ge transmission scan was obtained before the injection of the radiotracer for attenuation correction. The mean injected activity was 328 ± 12 MBq. The specific activity at the time of injection was 87.2 ± 34.7 GBq/μmol, which corresponded to 5.5 ± 2.3 nmol (0.082 ± 0.037 nmol/kg) of carrier. Blood samples (1 mL each) were drawn from the radial artery at 15-s intervals until 150 s, followed by 3-mL samples at 3, 4, 6, 8, 10, 15, 20, 30, 40, and 50 min, and 4.5 mL at 60, 75, 90, and 120 min. The unchanged parent fraction in plasma and fP of ^11C-LY2428703 were determined as described above.
To identify brain regions, magnetic resonance (MR) images were obtained using a 3-T GE Signa device (GE Healthcare, Milwaukee, WI, USA). T1-weighted structural images were acquired with a voxel size of 0.86 mm × 0.86 mm × 1.2 mm. The image acquisition sequences were the time of repetition (7.3 ms), echo time length (2.8 ms), and flip angle (6°).
The average PET image created from all frames was first coregistered to the individual MR image. Then, both MR and all PET images were spatially normalized to a standard anatomic orientation (Montreal Neurological Institute (MNI) space) based on transformation parameters from the MR images. A volume-of-interest template as implemented in PMOD (PMOD Technologies Ltd, Zurich, Switzerland) was used to obtain brain time-activity curves.
as §2

[3] = Pharmacological effects of injection, monkey; format: in vivo, rhesus monkeys; conditions: after injection
Experimental: as §1

mGluR1 [4] = target: T1, mGluR1 (Macaca mulatta, UniProt I2CU04); assay: Saturation binding assay with [^3H]LY456066, monkey cerebellar membranes; parameters: species or system rhesus monkeys; conditions: monkeys
T1 construct: P2 membrane fractions were prepared from the cerebella of; from tissue; host or cells: rhesus monkey cerebellum, P2 membrane fraction
T1 sequence (I2CU04 19-1195): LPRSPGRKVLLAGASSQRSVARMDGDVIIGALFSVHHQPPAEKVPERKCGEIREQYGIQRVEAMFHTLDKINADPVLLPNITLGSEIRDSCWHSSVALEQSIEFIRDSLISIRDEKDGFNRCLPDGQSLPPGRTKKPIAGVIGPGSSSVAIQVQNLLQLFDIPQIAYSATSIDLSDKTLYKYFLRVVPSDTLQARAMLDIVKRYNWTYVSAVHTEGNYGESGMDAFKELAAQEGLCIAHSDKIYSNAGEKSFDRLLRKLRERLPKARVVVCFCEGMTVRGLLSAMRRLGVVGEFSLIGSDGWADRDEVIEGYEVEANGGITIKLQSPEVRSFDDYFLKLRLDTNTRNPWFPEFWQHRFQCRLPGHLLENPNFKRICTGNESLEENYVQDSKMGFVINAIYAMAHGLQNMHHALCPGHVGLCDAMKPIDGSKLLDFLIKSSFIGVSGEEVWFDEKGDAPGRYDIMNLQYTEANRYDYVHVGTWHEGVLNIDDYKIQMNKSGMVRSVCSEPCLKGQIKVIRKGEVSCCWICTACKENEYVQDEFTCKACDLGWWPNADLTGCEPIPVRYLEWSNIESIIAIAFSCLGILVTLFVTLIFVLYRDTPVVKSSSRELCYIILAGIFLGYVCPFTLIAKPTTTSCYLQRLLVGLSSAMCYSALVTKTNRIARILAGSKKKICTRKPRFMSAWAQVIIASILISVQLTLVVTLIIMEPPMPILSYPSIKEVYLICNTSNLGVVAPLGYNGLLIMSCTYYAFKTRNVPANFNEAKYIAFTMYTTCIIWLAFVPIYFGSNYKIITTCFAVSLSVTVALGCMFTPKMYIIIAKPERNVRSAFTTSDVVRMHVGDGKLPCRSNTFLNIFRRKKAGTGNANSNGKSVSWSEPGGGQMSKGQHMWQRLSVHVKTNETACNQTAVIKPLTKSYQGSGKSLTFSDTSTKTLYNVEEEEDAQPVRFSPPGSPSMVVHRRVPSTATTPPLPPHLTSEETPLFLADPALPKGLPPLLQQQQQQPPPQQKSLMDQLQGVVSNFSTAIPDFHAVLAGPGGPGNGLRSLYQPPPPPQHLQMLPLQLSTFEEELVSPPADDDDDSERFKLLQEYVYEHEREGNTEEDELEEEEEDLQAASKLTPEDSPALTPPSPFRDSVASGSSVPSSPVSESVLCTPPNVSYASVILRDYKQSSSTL
Experimental: P2 membrane fractions were prepared from the cerebella of male Sprague–Dawley rats (n = 3), male rhesus monkeys (n = 3), and female humans (n = 4). […] Nonspecific binding was defined by heterologous displacement of 1 μM LY480084 (mGlu1 antagonist) in select wells. Plates were incubated on ice for 75 min and membranes harvested on 0.3% polyethylenimine pretreated Wallac filter mats using a Tomtec Harvester MachII (Tomtec, Hamden, CT, USA). Dissociation constant (KD) and receptor density (Bmax) values were obtained in GraphPad Prism using standard nonlinear one-site binding equations. Data are presented as mean ± SEM (n = 3 to 4); one-way analysis of variance followed by Tukey's post hoc test.

[5] = Pharmacological effects of injection, human; format: in vivo; conditions: three human subjects
Source text: as §3

[6] = room temperature, octanol; cited from earlier work

Structure (SMILES): Cc1c(-c2ccc(O[11CH3])cc2)nsc1NC(=O)[C@@H]1C[C@H]1C [^11C-LY2428703]
- VT in cerebellum ([1]; DCPQ experiment: baseline): 4.4 mL/cm^3
- VT in cerebellum ([1]; after DCPQ blockade (P-gp)): 4.2 mL/cm^3
- VT in cerebellum ([1]; after elacridar blockade (P-gp and BCRP)): 0.8 mL/cm^3
- substrate for P-gp or BCRP ([1]; based on pharmacological blockade): not a substrate
- VT in cerebellum ([1]; elacridar experiment: baseline): 2.0 mL/cm^3
- VT values (mGluR1 [2]; 2TCM, all brain regions): < 0.1 mL/cm^3
- time of brain peak uptake (mGluR1 [2]; after injection): 1.3 ± 0 min
- time at which brain activity decreased to 50% of the peak (mGluR1 [2]; average): 20 min
- VT (mGluR1 [2]; caudate, two-tissue compartment model): 0.086 ± 0.024 (22.6%) mL · cm^−3
- VT (mGluR1 [2]; cerebellum, two-tissue compartment model): 0.090 ± 0.010 (2.8%) mL · cm^−3
- VT (mGluR1 [2]; frontal cortex, two-tissue compartment model): 0.092 ± 0.016 (14.2%) mL · cm^−3
- VT (mGluR1 [2]; parietal cortex, two-tissue compartment model): 0.087 ± 0.011 (4.9%) mL · cm^−3
- VT (mGluR1 [2]; temporal cortex, two-tissue compartment model): 0.102 ± 0.010 (4.4%) mL · cm^−3
- mean VT (mGluR1 [2]; two-tissue compartment model): 0.093 ± 0.012 mL/cm^3
- brain peak uptake (mGluR1 [2]; without vascular correction): 1.14 ± 0.18 SUV
- changes in pulse/heart rate, respiratory rate, electrocardiogram [3]: no significant changes
- fp × Bmax/KD (=VS), effective BP (mGluR1 [4]): 0.161
- pharmacological effects (vital signs, electrocardiogram, laboratory testing, verbal reports) [5]: no pharmacological effects
- LogD [6]: 4.02
